Data on 11 molecules can be found in patent US20240270821A1, “GIP/GLP1/GCG TRI-RECEPTOR AGONISTS AND USES THEREOF” (priority 2023, published 2024).

Type in all cases: cell-based
In experiment [1] the target is T1, hGIPR (Homo sapiens, UniProt P48546).
T1 sequence (P48546 22-466): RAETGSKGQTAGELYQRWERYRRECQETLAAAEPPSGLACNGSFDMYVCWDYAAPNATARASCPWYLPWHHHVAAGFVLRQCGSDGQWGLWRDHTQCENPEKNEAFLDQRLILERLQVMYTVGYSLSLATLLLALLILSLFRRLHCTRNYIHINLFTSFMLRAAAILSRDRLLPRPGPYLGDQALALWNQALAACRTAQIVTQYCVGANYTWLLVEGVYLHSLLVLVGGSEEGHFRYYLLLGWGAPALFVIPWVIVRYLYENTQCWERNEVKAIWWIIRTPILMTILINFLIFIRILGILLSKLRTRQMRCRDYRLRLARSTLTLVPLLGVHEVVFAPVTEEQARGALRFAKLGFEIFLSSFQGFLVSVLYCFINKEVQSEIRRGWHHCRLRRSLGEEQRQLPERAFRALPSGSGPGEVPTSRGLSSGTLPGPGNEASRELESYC
Nature of the experiment: Functional cAMP activation in the presence of 0.1% casein (no HSA). The conditions noted are these: read-out: Relative cAMP EC50, hGIPR.

In the next experiment the target is hGcgR (Homo sapiens, UniProt P47871). Described as above. Particulars: read-out: Relative cAMP EC50, hGcgR.
Chain of hGcgR (P47871 26-477): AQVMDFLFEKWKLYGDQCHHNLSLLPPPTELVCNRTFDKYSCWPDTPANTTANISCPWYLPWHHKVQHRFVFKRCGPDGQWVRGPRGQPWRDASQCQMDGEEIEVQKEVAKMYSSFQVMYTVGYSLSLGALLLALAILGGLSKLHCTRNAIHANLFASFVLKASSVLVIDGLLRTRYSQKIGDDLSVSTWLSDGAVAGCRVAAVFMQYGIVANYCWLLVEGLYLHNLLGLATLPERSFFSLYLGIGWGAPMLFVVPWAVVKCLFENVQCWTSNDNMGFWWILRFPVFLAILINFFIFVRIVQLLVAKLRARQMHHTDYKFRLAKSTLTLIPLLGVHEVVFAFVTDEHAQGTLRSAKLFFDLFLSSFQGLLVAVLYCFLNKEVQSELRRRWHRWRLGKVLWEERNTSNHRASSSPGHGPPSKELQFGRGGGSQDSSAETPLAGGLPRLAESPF
For a further experiment, the target named is human GcgR (Homo sapiens, UniProt P47871). Nature of the experiment: Functional cAMP activity in the presence of 1% HSA. The conditions noted are these: read-out: cAMP Rel EC50, hGcgR.
Chain of human GcgR (P47871 26-477): as above
Another experiment addresses hGLP-1R (Homo sapiens, UniProt P43220). Nature of the experiment: Functional cAMP activation in the presence of 0.1% casein (no HSA). The conditions noted are these: read-out: Relative cAMP EC50, hGLP-1R.
Experiment [2] addresses T1, hGIPR. Nature of the experiment: Functional cAMP activity in the presence of 1% HSA. The conditions noted are these: read-out: cAMP Rel EC50, hGIPR.
Setting [3] is: in the presence of 0.1% casein (no HSA), geometric mean.
[4] abbreviates: HEK-293 clonal cell line, in the presence of 1% HSA, geometric mean of relative EC50.

Read-outs that look alike come from different tables or passages of the source. Starred links: 1 amine or outer side, 2 acyl side, 3 side chain; linkers in the order of their positions; H or OH if unused. Non-standard residues stand in square brackets, D forms with d. Groups on a side chain read outwards from the residue. No end group written: not given here. *: point of attachment. C18 diacid = O=C(O)CCCCCCCCCCCCCCCCC(=O)*; αMePhe(2-F) = C[C@](N)(Cc1ccccc1F)C(=O)O; γGlu = O=C(O)[C@H](CCC(=O)[*:2])N[*:1]; αMe4Pal = C[C@](N)(Cc1ccncc1)C(=O)O; αMeY = C[C@](N)(Cc1ccc(O)cc1)C(=O)O; 4Pal = N[C@@H](Cc1ccncc1)C(=O)O; αMeL = CC(C)C[C@](C)(N)C(=O)O; Orn = NCCC[C@H](N)C(=O)O; Dab = NCC[C@H](N)C(=O)O; AEEA = NCCOCCOCC(=O)O; Aib = CC(C)(N)C(=O)O
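For Relative cAMP EC50, hGIPR in this document: intracellular cAMP rise after 30 min at 37 °C read by HTRF against a standard curve, scaled between buffer alone (0%) and top control ligand concentration (100%), four-parameter fit.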
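For Relative cAMP EC50, hGLP-1R in this document: intracellular cAMP rise after 30 min at 37 °C read by HTRF, normalized between buffer only (0%) and maximal control ligand (100%), four-parameter variable-slope fit.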
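For Relative cAMP EC50, hGcgR in this document: intracellular cAMP rise after 30 min at 37 °C, read by HTRF against a cAMP standard curve, scaled from buffer only (0%) to maximal control ligand response (100%).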

Chain of hGLP-1R (P43220 24-463): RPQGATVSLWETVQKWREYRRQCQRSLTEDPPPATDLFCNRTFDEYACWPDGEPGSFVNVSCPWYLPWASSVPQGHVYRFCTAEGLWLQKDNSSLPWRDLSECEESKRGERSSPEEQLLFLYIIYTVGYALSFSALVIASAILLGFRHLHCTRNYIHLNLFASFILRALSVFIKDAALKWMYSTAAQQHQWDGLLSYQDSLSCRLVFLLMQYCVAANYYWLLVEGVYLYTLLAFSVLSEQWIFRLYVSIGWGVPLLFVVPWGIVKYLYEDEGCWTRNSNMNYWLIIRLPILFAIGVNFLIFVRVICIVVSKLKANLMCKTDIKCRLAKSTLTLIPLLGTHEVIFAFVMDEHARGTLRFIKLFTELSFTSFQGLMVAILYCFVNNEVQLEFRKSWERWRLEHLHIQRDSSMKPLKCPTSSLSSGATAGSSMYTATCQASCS

With “H-Y[Aib]QGTFTSD[4Pal]SQ[αMeL]LD[Orn]K([Glu-γGlu-C18 diacid])AQ[αMe4Pal]AFIEYLLAGGPSSGAPPPSGSEE-NH2 [Example 1057]”, the EC50 (as a rule, the concentration giving half of the maximal effect) on hGIPR [1] (setting [3]) was found to be 0.128 nM; on hGcgR (setting [3]) it was 5.29 nM; on human GcgR it was 2780 nM; at hGLP-1R (setting [3]), 5.16 nM; on hGIPR [2] it was 25.9 nM.

In the case of “H-Y[Aib]QGTFTSD[4Pal]S[Dab][αMeL]LDKK([AEEA-γGlu-C18 diacid])AQ[Aib]AFIEYLIE[Aib]GPSSGAPPPSGS-NH2 [Example 803]”, the EC50 amounted to 0.232 nM on hGIPR [1] (setting [3]), 9.75 nM at hGcgR (setting [3]) and 2.02 nM on hGLP-1R (setting [3]).

Turning to “H-Y[Aib]QGTFTSD[4Pal]S[Dab][αMeL]LD[Orn]K([γGlu-γGlu-C18 diacid])AQ[αMe4Pal]AFIE[αMe4Pal]LLAGGPSSGAPPPEGSEE-NH2 [Example 1055]”, the EC50 was 0.366 nM on hGIPR [1] (setting [3]); 1.88 nM at hGcgR (setting [3]); 450 nM on human GcgR (setting [4]); 14.6 nM at hGLP-1R (setting [3]); 78.9 nM at hGIPR [2] (setting [4]).

As to “H-Y[Aib]QGTFTSD[4Pal]S[Orn][αMeL]LD[Orn]K([Glu-Glu-γGlu-C18 diacid])AQ[αMe4Pal]AFIEYLIAGGPSSGAPPPSGSEE-NH2 [Example 1062]”, the EC50 came to 0.726 nM at hGIPR [1] (setting [3]); 8.77 nM at hGcgR (setting [3]); 2380 nM on human GcgR; 7.75 nM on hGLP-1R (setting [3]); 67.5 nM at hGIPR [2].

Consider “H-Y[Aib]QGTFTSDFS[Orn][αMeL]LDKK([γGlu-γGlu-C18 diacid])AQ[Aib]AFIEYLLAGGPSSGAPPPEGSEE-NH2 [Example 1051]”, for which the EC50 on hGIPR [1] (setting [3]) stood at 0.172 nM; on hGcgR (setting [3]), 10.3 nM; on human GcgR (setting [4]), 1800 nM; on hGLP-1R (setting [3]), 8.3 nM; at hGIPR [2] (setting [4]), 32.6 nM.

On to `CC[C@H](C)[C@H](NC(=O)[C@H](CO)NC(=O)[C@H](Cc1ccc(O)cc1)NC(=O)[C@H](CC(=O)O)NC(=O)[C@H](CO)NC(=O)[C@@H](NC(=O)[C@H](Cc1ccccc1)NC(=O)[C@@H](NC(=O)CNC(=O)[C@H](CCC(=O)O)NC(=O)[C@H](C)NC(=O)[C@@H](N)Cc1ccc(O)cc1)[C@@H](C)O)[C@@H](C)CC)C(=O)N[C@@H](C)C(=O)N[C@@H](CCSC)C(=O)N[C@@H](CC(=O)O)C(=O)N[C@@H](CCCCN)C(=O)N[C@H](C(=O)N[C@@H](Cc1c[nH]cn1)C(=O)N[C@@H](CCC(N)=O)C(=O)N[C@@H](CCC(N)=O)C(=O)N[C@@H](CC(=O)O)C(=O)N[C@@H](Cc1ccccc1)C(=O)N[C@H](C(=O)N[C@@H](CC(N)=O)C(=O)N[C@@H](Cc1c[nH]c2ccccc12)C(=O)N[C@@H](CC(C)C)C(=O)N[C@@H](CC(C)C)C(=O)N[C@@H](C)C(=O)N[C@@H](CCC(N)=O)C(=O)N[C@@H](CCCCN)C(=O)NCC(=O)N[C@@H](CCCCN)C(=O)N[C@@H](CCCCN)C(=O)N[C@@H](CC(N)=O)C(=O)N[C@@H](CC(=O)O)C(=O)N[C@@H](Cc1c[nH]c2ccccc12)C(=O)N[C@@H](CCCCN)C(=O)N[C@@H](Cc1c[nH]cn1)C(=O)N[C@@H](CC(N)=O)C(=O)N[C@H](C(=O)N[C@H](C(=O)N[C@@H](CCC(N)=O)C(N)=O)[C@@H](C)O)[C@@H](C)CC)C(C)C)[C@@H](C)CC` [hGIP 1-42 amide], for which the EC50 at hGcgR (setting [3]) is above 99.5 nM; on human GcgR, above 9950 nM.

“H-Y[Aib]QGTFTSDFS[Orn][αMeL]LD[Orn]K([γGlu-γGlu-C18 diacid])AQ[Aib]AFIE[αMe4Pal]LLAGGPSSGAPPPEGSEE-NH2 [Example 1053]”: the EC50 on hGIPR [1] (setting [3]) was found to be 0.123 nM; on hGcgR (setting [3]), 10.4 nM; on human GcgR (setting [4]), 3470 nM; at hGLP-1R (setting [3]), 6.2 nM; at hGIPR [2] (setting [4]) it was 19.3 nM.

For “Y[Aib]QGTFTSD[4Pal]SQ[αMeL]LD[Orn]K([dE-γGlu-C18 diacid])AQ[αMe4Pal]AFIE[αMeY]LLEGGPSSGAPPPSGSEE-NH2 [Example 1058]”, the EC50 on hGIPR [1] (setting [3]) is 0.139 nM; at hGcgR (setting [3]) it was 5.8 nM; at human GcgR, 1450 nM; on hGLP-1R (setting [3]), 4.48 nM; on hGIPR [2], 45.6 nM.

As for “H-Y[Aib]QGTFTSD[4Pal]S[Orn][αMeL]LD[Orn]K([Glu-γGlu-C18 diacid])AQ[αMe4Pal]AFIEYLIAGGPSSGAPPPSGSEE-NH2 [Example 1061]”, the 50% effective concentration (EC50) was determined as 0.656 nM at hGIPR [1] (setting [3]); 17.3 nM at hGcgR (setting [3]); 2910 nM on human GcgR; 4.56 nM on hGLP-1R (setting [3]); 55.6 nM at hGIPR [2].

For “H-Y[Aib]QGTFTSD[4Pal]SR[αMeL]LDKK([AEEA-γGlu-C18 diacid])AQ[Aib]AFIEYLIE[Aib]SPSSGAPPPSGS-NH2 [Example 807]”, the figures for the EC50 on hGIPR [1] (setting [3]), on hGcgR (setting [3]) and at hGLP-1R (setting [3]) were 0.108 nM, 12.4 nM and 1.72 nM, respectively.

In the case of “H-Y[Aib]QGT[αMePhe(2-F)]TSD[4Pal]SILLDKK([γGlu-γGlu-C18 diacid])AQ[Aib]AFIEYLTEGGPSSGAPPPSGTE-NH2 [Example 554]”, the EC50 on hGIPR [1] was 0.0323 nM; on hGcgR, 6.83 nM; at human GcgR, 946 nM; on hGLP-1R, 0.423 nM; at hGIPR [2] it was 4.08 nM.
